Our source for the inhibition and IC50 values is ChEMBL document CHEMBL2086238, “Identification of ETP-46321, a potent and orally bioavailable PI3K α, δ inhibitor” (Bioorg Med Chem Lett, 2012).

The term inhibition denotes how much of the control response was suppressed. By IC50 is commonly meant the concentration that gives 50% inhibition.

A short description of assay [1]: Inhibition of PDGFR at 5 uM.
In assay [2] the target is Serine/threonine-protein kinase pim-1 (Homo sapiens) (UniProt P11309). The assay can be described thus: Inhibition of PIM1 at 1 uM.
For assay [3], the target named is RAC-alpha serine/threonine-protein kinase (Homo sapiens) (UniProt P31749). The assay is described as follows: Inhibition of AKT1 at 5 uM.
Chain of RAC-alpha serine/threonine-protein kinase (Homo sapiens) (P31749 whole entry): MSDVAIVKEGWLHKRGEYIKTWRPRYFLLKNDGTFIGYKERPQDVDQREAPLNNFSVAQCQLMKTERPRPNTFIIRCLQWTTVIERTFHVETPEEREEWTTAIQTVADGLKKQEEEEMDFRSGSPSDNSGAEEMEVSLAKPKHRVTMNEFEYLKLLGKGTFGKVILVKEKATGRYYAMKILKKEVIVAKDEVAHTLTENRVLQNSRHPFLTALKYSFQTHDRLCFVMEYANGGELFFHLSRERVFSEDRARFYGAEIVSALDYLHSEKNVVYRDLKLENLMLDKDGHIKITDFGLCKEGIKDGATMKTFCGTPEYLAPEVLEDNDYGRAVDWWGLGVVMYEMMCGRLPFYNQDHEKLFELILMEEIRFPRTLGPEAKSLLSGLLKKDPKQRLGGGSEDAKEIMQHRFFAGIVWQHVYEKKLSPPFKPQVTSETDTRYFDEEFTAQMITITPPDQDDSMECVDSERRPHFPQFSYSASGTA
For assay [4], the target named is Insulin-like growth factor 1 receptor (Homo sapiens) (UniProt P08069). The assay can be described thus: Inhibition of IGF1R at 5 uM.
Chain of Insulin-like growth factor 1 receptor (Homo sapiens) (P08069 31-736 limits assumed): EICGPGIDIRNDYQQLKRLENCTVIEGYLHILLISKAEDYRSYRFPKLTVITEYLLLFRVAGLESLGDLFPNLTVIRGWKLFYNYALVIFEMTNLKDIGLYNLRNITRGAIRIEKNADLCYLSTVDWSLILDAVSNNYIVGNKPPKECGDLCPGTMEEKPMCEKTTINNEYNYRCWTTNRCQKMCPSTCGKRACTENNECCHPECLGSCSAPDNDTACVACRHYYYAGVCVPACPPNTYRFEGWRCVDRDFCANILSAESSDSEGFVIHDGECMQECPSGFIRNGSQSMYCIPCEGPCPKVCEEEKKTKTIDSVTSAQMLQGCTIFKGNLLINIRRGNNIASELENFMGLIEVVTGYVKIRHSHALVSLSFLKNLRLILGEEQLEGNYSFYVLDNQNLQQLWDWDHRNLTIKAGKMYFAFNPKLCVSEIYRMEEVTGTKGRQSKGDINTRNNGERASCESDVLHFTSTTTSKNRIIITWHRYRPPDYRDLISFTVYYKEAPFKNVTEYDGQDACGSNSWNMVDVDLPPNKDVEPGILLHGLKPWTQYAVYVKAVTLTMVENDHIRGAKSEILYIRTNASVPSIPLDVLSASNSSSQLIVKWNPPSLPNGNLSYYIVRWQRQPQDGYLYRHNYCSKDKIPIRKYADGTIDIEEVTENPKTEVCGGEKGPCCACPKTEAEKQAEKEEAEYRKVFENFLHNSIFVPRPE
Chain of Insulin-like growth factor 1 receptor (Homo sapiens) (P08069 741-1367 limits assumed): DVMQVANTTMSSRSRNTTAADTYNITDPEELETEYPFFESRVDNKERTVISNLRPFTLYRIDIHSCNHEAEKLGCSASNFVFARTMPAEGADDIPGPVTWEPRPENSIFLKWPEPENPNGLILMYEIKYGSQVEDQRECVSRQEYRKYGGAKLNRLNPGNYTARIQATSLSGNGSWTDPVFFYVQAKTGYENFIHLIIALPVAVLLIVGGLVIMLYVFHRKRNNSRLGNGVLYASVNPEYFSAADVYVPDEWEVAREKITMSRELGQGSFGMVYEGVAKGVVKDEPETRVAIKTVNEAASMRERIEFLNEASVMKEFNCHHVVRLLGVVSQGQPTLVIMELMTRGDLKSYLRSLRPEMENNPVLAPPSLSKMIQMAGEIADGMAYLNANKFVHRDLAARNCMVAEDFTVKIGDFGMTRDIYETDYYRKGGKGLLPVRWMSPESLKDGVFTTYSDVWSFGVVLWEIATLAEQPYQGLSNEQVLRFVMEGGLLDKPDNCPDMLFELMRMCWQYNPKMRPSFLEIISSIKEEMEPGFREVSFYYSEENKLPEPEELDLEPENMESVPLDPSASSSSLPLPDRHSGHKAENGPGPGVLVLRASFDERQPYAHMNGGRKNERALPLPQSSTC
Assay [5] concerns the target Dual specificity mitogen-activated protein kinase kinase 1 (Homo sapiens) (UniProt Q02750). The assay can be described thus: Inhibition of MEK1 at 5 uM.
The target of assay [6] is Ribosomal protein S6 kinase alpha-1 (Homo sapiens) (UniProt Q15418). The assay can be described thus: Inhibition of RPS6KA1 at 5 uM.
Chain of Ribosomal protein S6 kinase alpha-1 (Homo sapiens) (Q15418 whole entry): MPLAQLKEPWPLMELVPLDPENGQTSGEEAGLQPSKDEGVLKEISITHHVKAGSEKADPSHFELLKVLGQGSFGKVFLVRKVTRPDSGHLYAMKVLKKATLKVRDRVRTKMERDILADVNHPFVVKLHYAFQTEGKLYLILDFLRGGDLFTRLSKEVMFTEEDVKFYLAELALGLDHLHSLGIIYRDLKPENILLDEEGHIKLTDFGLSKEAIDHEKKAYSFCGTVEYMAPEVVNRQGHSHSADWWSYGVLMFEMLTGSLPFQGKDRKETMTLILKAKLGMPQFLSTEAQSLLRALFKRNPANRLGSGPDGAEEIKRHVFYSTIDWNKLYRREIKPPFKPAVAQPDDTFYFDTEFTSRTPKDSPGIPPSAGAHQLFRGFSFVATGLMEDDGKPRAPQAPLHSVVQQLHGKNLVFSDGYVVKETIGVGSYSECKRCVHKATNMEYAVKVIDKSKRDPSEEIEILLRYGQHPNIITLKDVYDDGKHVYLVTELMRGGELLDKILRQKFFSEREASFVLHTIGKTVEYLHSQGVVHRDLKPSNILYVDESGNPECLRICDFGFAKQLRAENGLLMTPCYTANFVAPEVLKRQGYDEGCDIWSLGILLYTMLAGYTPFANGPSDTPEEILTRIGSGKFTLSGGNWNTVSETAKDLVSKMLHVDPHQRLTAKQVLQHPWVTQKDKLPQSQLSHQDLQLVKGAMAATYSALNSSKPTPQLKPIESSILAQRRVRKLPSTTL
Assay [7] concerns the target T1, NUAK family SNF1-like kinase 1 (Homo sapiens) (UniProt O60285).
T1 sequence (whole entry): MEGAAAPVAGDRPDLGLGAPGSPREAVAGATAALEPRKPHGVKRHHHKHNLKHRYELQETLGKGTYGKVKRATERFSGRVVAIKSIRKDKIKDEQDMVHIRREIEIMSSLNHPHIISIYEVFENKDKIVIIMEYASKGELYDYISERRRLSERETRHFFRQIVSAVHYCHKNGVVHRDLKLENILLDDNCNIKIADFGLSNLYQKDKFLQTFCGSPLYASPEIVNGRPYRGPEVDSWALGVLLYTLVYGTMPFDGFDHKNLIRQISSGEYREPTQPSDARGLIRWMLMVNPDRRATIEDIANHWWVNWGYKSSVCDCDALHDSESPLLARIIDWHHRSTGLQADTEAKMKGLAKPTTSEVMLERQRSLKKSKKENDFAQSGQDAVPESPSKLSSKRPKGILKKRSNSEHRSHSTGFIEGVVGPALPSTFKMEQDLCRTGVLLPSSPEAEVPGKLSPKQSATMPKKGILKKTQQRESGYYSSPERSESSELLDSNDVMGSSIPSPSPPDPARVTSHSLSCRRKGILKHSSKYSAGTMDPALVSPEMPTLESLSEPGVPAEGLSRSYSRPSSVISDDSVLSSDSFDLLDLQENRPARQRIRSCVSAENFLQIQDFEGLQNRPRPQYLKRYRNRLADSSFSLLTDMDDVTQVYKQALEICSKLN
The assay can be described thus: Inhibition of ARK5 at 5 uM.

The target in assay [8] is Insulin receptor (Homo sapiens) (UniProt P06213). The assay can be described thus: Inhibition of INSR at 5 uM.
The target in assay [9] is Tyrosine-protein kinase JAK2 (Homo sapiens) (UniProt O60674). The assay is described as follows: Inhibition of JAK2 at 5 uM.
Chain of Tyrosine-protein kinase JAK2 (Homo sapiens) (O60674 whole entry): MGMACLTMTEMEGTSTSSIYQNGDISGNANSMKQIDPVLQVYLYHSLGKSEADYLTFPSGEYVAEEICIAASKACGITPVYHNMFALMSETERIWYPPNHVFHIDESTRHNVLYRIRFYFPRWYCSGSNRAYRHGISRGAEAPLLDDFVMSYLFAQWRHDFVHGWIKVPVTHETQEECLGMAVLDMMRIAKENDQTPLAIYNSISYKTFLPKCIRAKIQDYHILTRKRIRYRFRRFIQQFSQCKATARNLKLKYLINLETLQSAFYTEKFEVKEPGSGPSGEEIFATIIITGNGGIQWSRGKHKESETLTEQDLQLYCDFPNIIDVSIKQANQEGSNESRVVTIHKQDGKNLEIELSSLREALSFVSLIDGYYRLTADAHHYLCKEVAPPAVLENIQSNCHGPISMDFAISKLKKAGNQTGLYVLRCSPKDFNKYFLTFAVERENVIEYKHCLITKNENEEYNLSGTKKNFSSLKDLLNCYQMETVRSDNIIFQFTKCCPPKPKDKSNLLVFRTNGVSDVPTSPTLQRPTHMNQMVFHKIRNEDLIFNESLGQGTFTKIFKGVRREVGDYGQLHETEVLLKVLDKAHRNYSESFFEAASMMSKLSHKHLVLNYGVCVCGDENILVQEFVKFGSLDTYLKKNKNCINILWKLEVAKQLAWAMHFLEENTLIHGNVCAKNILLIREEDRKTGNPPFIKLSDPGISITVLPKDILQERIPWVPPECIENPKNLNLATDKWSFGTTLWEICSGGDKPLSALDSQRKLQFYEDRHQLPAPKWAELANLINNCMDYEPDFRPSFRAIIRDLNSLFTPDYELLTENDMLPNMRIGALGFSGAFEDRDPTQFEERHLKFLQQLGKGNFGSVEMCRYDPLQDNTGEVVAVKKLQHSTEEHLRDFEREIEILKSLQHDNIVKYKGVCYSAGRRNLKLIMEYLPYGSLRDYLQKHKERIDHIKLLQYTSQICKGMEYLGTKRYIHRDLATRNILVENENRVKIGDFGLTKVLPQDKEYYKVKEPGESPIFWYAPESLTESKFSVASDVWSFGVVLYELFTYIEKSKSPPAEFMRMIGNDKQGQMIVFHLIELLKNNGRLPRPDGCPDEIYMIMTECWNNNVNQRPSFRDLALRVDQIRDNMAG
Assay [10] addresses Insulin receptor (Homo sapiens) (UniProt P06213). The assay is described as follows: Inhibition of INSR at 1 uM.
The target in assay [11] is Receptor-type tyrosine-protein kinase FLT3 (Homo sapiens) (UniProt P36888). The assay is described as follows: Inhibition of FLT3 at 1 uM.
Chain of Receptor-type tyrosine-protein kinase FLT3 (Homo sapiens) (P36888 whole entry): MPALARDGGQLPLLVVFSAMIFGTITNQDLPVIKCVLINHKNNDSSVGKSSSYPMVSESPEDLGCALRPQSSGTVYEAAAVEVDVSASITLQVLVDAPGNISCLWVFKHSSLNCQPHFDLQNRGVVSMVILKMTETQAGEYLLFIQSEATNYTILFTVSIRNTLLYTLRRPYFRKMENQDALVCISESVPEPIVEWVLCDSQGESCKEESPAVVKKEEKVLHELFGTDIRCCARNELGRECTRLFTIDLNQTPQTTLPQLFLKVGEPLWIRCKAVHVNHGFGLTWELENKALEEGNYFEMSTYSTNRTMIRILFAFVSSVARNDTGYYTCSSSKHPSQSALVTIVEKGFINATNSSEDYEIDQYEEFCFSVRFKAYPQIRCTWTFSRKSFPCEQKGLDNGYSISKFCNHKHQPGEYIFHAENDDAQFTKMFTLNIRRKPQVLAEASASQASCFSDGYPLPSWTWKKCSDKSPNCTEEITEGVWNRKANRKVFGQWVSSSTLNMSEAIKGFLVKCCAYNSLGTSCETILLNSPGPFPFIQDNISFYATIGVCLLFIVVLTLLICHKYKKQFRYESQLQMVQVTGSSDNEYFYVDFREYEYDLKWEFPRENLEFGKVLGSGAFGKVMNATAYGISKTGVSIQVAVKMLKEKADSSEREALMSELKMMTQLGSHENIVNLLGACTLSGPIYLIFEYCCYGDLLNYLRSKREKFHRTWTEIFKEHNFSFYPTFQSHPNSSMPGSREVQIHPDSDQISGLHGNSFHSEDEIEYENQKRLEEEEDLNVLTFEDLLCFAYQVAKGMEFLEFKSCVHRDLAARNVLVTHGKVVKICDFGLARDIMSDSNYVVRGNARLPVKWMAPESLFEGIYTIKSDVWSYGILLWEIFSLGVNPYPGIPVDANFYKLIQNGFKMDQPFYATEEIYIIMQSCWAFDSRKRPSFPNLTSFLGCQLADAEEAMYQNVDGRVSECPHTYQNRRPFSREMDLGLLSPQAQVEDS
For assay [12], the target named is Insulin-like growth factor 1 receptor (Homo sapiens) (UniProt P08069). The assay is described as follows: Inhibition of IGF1R at 1 uM.
The target in assay [13] is Epidermal growth factor receptor (Homo sapiens) (UniProt P00533). The assay is described as follows: Inhibition of EGFR at 5 uM.
In assay [14] the target is T2, Serine/threonine-protein kinase Sgk1 (Homo sapiens) (UniProt O00141).
T2 sequence (whole entry): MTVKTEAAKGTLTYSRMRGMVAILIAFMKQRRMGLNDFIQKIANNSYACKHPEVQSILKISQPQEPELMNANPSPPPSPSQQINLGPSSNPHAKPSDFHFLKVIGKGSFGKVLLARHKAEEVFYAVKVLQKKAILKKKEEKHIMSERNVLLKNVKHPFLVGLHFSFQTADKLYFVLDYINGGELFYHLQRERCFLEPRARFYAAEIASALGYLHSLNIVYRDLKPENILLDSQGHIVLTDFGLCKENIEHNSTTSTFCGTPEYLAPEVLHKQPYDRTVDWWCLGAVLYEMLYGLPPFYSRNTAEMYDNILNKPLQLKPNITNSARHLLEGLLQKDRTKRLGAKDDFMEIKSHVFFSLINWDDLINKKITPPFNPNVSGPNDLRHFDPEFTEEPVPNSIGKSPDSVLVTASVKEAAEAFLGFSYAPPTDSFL
The assay can be described thus: Inhibition of SGK1 at 5 uM.

Assay [15] deals with T3, Inhibitor of nuclear factor kappa-B kinase subunit beta (Homo sapiens) (UniProt O14920).
T3 sequence (whole entry): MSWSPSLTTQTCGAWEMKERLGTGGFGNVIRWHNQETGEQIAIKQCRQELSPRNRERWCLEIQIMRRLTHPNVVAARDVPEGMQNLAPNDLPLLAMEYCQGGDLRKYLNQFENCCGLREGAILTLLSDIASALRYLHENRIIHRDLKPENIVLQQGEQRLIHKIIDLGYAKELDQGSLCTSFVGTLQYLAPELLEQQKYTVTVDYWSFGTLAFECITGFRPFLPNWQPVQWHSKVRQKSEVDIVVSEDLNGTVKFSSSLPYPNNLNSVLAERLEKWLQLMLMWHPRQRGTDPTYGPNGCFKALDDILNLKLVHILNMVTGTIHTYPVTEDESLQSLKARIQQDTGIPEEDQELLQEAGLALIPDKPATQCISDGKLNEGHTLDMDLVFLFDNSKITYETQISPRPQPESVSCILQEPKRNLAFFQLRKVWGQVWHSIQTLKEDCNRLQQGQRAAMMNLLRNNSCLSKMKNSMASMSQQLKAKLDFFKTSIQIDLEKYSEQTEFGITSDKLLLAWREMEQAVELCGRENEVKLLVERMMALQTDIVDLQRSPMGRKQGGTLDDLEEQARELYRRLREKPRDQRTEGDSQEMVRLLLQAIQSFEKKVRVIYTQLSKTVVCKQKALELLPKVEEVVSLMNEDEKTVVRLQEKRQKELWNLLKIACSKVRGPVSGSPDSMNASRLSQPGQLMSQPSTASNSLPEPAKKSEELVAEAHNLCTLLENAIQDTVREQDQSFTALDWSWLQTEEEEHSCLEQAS
The assay can be described thus: Inhibition of IKKbeta at 1 uM.

Assay [16] concerns the target Dual specificity tyrosine-phosphorylation-regulated kinase 1A (Homo sapiens) (UniProt Q13627). The assay is described as follows: Inhibition of DYRK1A at 1 uM.
Assay [17] addresses Mast/stem cell growth factor receptor Kit (Homo sapiens) (UniProt P10721). The assay can be described thus: Inhibition of KIT at 5 uM.
Assay [18] addresses Focal adhesion kinase 1 (Homo sapiens) (UniProt Q05397). The assay can be described thus: Inhibition of FAK at 1 uM.
Assay [19] has as its target Phosphatidylinositol 4,5-bisphosphate 3-kinase catalytic subunit alpha isoform (Homo sapiens, UniProt P42336). The assay can be described thus: Inhibition of PI3Kalpha in human U2OS cells assessed as inhibition of AKT Ser 473 phosphorylation by Western blot. Format: cell-based.

Chain of Dual specificity mitogen-activated protein kinase kinase 1 (Homo sapiens) (Q02750 whole entry): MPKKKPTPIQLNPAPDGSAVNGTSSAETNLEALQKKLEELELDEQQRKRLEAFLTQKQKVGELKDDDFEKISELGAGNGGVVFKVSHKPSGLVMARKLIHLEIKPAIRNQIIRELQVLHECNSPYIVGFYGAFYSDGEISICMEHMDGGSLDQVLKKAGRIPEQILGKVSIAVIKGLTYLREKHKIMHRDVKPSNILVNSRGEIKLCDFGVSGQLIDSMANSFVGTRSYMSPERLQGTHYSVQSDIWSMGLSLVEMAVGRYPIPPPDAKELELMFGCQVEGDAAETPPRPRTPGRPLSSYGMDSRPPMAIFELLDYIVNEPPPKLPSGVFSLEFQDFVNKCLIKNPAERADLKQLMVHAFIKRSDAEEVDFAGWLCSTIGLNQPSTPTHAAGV

In the case of `Cc1nc(N)ncc1-c1cn2cc(CN3CCN(S(C)(=O)=O)CC3)nc2c(N2CCOCC2)n1`, the inhibition in assay [1], in assay [2], in assay [3], in [4], in assay [5] and in assay [6] was less than 30% each time. The inhibition in assay [7], in [8], in assay [9], in [10], in assay [11] and in assay [12] was less than 30% each time. The inhibition in assay [13], in assay [14], in assay [15], in [16], in assay [17] and in [18] was less than 30% each time.

In the case of `CS(=O)(=O)N1CCN(Cc2nc3c(N4CCOCC4)nc(-c4cnc(N)nc4)cn3c2Br)CC1`, the inhibition in assay [1], in assay [2], in assay [3], in assay [4], in assay [5] and in assay [6] was less than 30% each time. Also, the inhibition in assay [7], in [8], in assay [9], in assay [10], in assay [11] and in [12] was less than 30% each time. The inhibition in assay [13], in assay [14], in [15], in [16], in [17] and in assay [18] was less than 30% throughout. Further, the half-maximal inhibitory concentration (IC50) in assay [19] was 8.1 nM.

With `CS(=O)(=O)N1CCN(Cc2cn3c(Cl)c(-c4cnc(N)nc4)nc(N4CCOCC4)c3n2)CC1`, the inhibition in assay [1], in [2], in [3], in [4], in assay [5] and in assay [6] was less than 30% in each case. Also, the inhibition in [7], in assay [8], in [9], in assay [10], in assay [11] and in assay [12] was less than 30% throughout. Moreover, the inhibition in assay [13], in assay [14], in assay [15], in assay [16], in assay [17] and in [18] was less than 30% throughout. For the same compound, the IC50 in assay [19] stood at 5.2 nM.

Take `CS(=O)(=O)N1CCN(Cc2cn3cc(-c4cnc(N)nc4)nc(N4CCOCC4)c3n2)CC1`: the inhibition in assay [1], in assay [2], in assay [3], in assay [4], in assay [5] and in [6] was less than 30% in each case. The inhibition in assay [7], in assay [8], in assay [9], in [10], in assay [11] and in assay [12] was less than 30% throughout. In addition, the inhibition in assay [13], in [14], in [15], in assay [16], in [17] and in assay [18] was less than 30% throughout.

On to `Cc1c(CN2CCN(S(C)(=O)=O)CC2)nc2c(N3CCOCC3)nc(-c3cnc(N)nc3)cn12`, for which the inhibition in assay [1], in assay [2], in assay [3], in assay [4], in assay [5] and in assay [6] was less than 30% in each case. Further, the inhibition in assay [7], in [8], in [9], in [10], in assay [11] and in assay [12] was less than 30% in each case. The inhibition in assay [13], in assay [14], in assay [15], in [16], in [17] and in assay [18] was less than 30% throughout. Further, in assay [19], the IC50 is 15.4 nM.
